Where a name gives a salt, the structure may show the parent alone.

Experimental findings from US8778963B2, “Hydroxylamine and oxime substituted imidazoquinolines, imidazopyridines, and imidazonaphthyridines” (3M Innovative Properties Company, priority 2003, dated 2014) are described below.

Usually melting point stands for the temperature of the solid-liquid transition. In the case of `CCCc1nc2c(N)nc(C)c(C)c2n1CCCCN(OC)C(=O)c1ccccc1` [Example 27, N-Methoxy-N-[4-(4-amino-6,7-dimethyl-2-propyl-1H-imidazo[4,5-c]pyridin-1-yl)-butyl]benzamide], the melting point was in the range of 136 to 137 °C.
On to `CCCc1nc2c(N)nc3cccnc3c2n1CCCCN(OC)C(=O)c1ccccc1` [Example 2, N-[4-(4-Amino-2-propyl-1H-imidazo[4,5-c][1,5]naphthyridin-1-yl)butyl]-N-methoxybenzamide], for which the melting point lay within 125 to 127 °C.
For `CCCc1nc2c(N)nc3ccccc3c2n1CCCC(C)N(OC)C(=O)Nc1ccccc1` (centres unmarked) [Example 11, 1-[4-(4-Amino-2-propyl-1H-imidazo[4,5-c]quinolin-1-yl)-1-methylbutyl]-1-methoxy-3-phenylurea] the value was 140 to 142 °C.
For `CCCc1nc2c(N)nc3cc(-c4ccccc4)ccc3c2n1CCCC(C)=NOC` [Example 17, 5-(4-Amino-7-phenyl-2-propyl-1H-imidazo[4,5-c]quinolin-1-yl)pentan-2-one O-methyloxime] the value was 191 to 192 °C; for `CCCc1nc2c(N)nc3ccccc3c2n1CCCC(C)N(OC)C(C)=O` (centres unmarked) [Example 10, N-[4-(4-Amino-2-propyl-1H-imidazo[4,5-c]quinolin-1-yl)-1-methylbutyl]-N-methoxy-acetamide], 140 to 142 °C; for `CCCc1nc2c(N)nc3ccccc3c2n1CCCC(CC(C)C)=NO` [Example 37, 1-(4-Amino-2-propyl-1H-imidazo[4,5-c]quinolin-1-yl)-6-methylheptan-4-one oxime], 207 to 209 °C.
The same measure for `CCCc1nc2c(N)nc3cccnc3c2n1CCCC(C)N(OC)C(C)=O` (centres unmarked) [Example 22, N-Methoxy-N-[4-(4-amino-2-propyl-1H-imidazo[4,5-c][1,5]naphthyridin-1-yl)1-methyl-butyl]acetamide]: 158 to 159 °C; for `CCCc1nc2c(N)nc3ccccc3c2n1CCCCN(OC)S(C)(=O)=O` [Example 8, N-[4-(4-Amino-2-propyl-1H-imidazo[4,5-c]quinolin-1-yl)butyl]-N-methoxymethanesulfonamide]: 178 to 188 °C; for `CON=C(C)CC(C)(C)Cn1cnc2c(N)nc3ccccc3c21` [Example 41, 5-(4-Amino-1H-imidazo[4,5-c]quinolin-1-yl)-4,4-dimethylpentan-2-one O-methyloxime]: 148 to 150 °C.
In turn, `CCCc1nc2c(N)nc3ccccc3c2n1CCCCN(OC)C(N)=O` [Example 7, 1-[4-(4-Amino-2-propyl-1H-imidazo[4,5-c]quinolin-1-yl)butyl]-1-methoxyurea] came in with a melting point of 179 to 181 °C.
The same measure for `CON(CCCCn1c(C)nc2c(N)nc3ccccc3c21)S(C)(=O)=O` [Example 47, N-[4-(4-Amino-2-methyl-1H-imidazo[4,5-c]quinolin-1-yl)butyl]-N-methoxymethanesulfonamide]: 201 to 203 °C; for `CCCc1nc2c(N)nc3ccccc3c2n1CCCCN(O)C(C)=O` [Example 43, N-[4-(4-Amino-2-propyl-1H-imidazo[4,5-c]quinolin-1-yl)butyl]-N-hydroxyacetamide]: 191 to 193 °C; for `CCCc1nc2c(N)nc3cccnc3c2n1CCCCN(OC)C(C)=O` [Example 1, N-[4-(4-Amino-2-propyl-1H-imidazo[4,5-c]-1,5-naphthyridin-1-yl)butyl]-N-methoxyacetamide]: 155 to 156 °C.
For the molecule `CCCc1nc2c(N)nc(C)c(C)c2n1CCCCN(O)C(=O)c1ccccc1` [Example 25, N-Hydroxy-N-[4-(4-amino-6,7-dimethyl-2-propyl-1H-imidazo[4,5-c]pyridin-1-yl)-butyl]benzamide], the melting point was in the range of 132 to 134 °C.
The same measure for `CO/N=C/CCCn1c(C)nc2c(N)nc3ccccc3c21` [Example 45, 4-(4-Amino-2-methyl-1H-imidazo[4,5-c]quinolin-1-yl)butanal O-methyloxime]: 153 to 155 °C; for `CCCc1nc2c(N)nc3ccccc3c2n1CCCC(C)N(OC)C(=O)NC1CCCC1` (centres unmarked) [Example 16, 1-[4-(4-Amino-2-propyl-1H-imidazo[4,5-c]quinolin-1-yl)-1-methylbutyl]-N-methoxy-3-cyclopentylurea]: 182 to 184 °C.
For `CCCc1nc2c(N)nc3ccccc3c2n1CCCCN(OC)C(C)=O` [Example 6, N-[4-(4-Amino-2-propyl-1H-imidazo[4,5-c]quinolin-1-yl)butyl]-N-methoxyacetamide] the value was 138 to 140 °C.
As for `CCCCc1nc2c(N)nc3ccccc3c2n1CCCC(=NOC)c1ccccc1` [Example 29, 4-(4-Amino-2-butyl-1H-imidazo[4,5-c]quinolin-1-yl)-1-phenylbutan-1-one O-methyloximie], the melting point fell in the range of 198 to 200 °C.
For `CCCc1nc2c(N)nc3cc(-c4ccccc4)ccc3c2n1CCCC(C)N(OC)C(=O)NC(C)C` (centres unmarked) [Example 18, 1-[4-(4-Amino-7-phenyl-2-propyl-1H-imidazo[4,5-c]quinolin-1-yl)-1-methylbutyl]-3-isopropyl-1-methoxyurea] the value was 101 to 103 °C.
For `CCCc1nc2c(N)nc(C)c(C)c2n1CCCCN(O)C(=O)OC(C)(C)C` [Example 14, N-[4-(4-Amino-6,7-dimethyl-2-propyl-1H-imidazo[4,5-c]pyridin-1-yl)butyl]-N-[tert-butyl carbamate]hydroxylamine] the value was 157 to 158.5 °C; for `CCCc1nc2c(N)nc3ccccc3c2n1CCCCN(OC)C(=O)Nc1ccccc1` [Example 9], 164 to 166 °C; for `CCCc1nc2c(N)nc(C)c(C)c2n1CCCCN(O)C(=O)Nc1ccccc1` [Example 24, 1-[4-(4-Amino-6,7-dimethyl-2-propyl-1H-imidazo[4,5-c]pyridine-1-yl)butyl]-1-hydroxy-3-phenylurea], 159 to 160.5 °C.
The same measure for `CCCc1nc2c(N)nc3ccccc3c2n1CC(C)(C)CC(C)=NOC` [Example 40, 5-(4-Amino-2-propyl-1H-imidazo[4,5-c]quinolin-1-yl)-4,4-dimethylpentan-2-one O-methyloxime]: 196 to 198 °C.
With `CCCc1nc2c(N)nc(C)c(C)c2n1CCCCN(O)C(C)=O` [Example 15, N-[4-(4-Amino-6,7-dimethyl-2-propyl-1-imidazo[4,5-c]pyridin-1-yl)butyl]-N-hydroxyacetamide], the melting point is 164 to 166 °C.
In the case of `CCCc1nc2c(N)nc3cccnc3c2n1CCCCN(OC)C(=O)NC(C)C` [Example 3, N-[4-(4-Amino-2-propyl-1H-imidazo[4,5-c][1,5]naphthyridin-1-yl)butyl]-N′-isopropyl-N-methoxyurea], the melting point fell in the range of 161 to 162 °C.
The same measure for `CCOCc1nc2c(N)nc3ccccc3c2n1CCCC(C)=NOCc1ccccc1` (as salt: hydrochloride) [Example 36, 5-(4-Amino-2-ethoxymethyl-1H-imidazo[4,5-c]quinolin-1-yl)pentan-2-one O-benzyloxime hydrochloride]: 184 to 186 °C; for `CCOCc1nc2c(N)nc3ccccc3c2n1CCCC(C)=NOC` (as salt: hydrochloride) [Example 35, 5-(4-Amino-2-ethoxymethyl-1H-imidazo[4,5-c]quinolin-1-yl)pentan-2-one O-methyloxime hydrochloride]: 189 to 192 °C; for `CCOCc1nc2c(N)nc3ccccc3c2n1CCCC(C)N(OC)S(C)(=O)=O` (centres unmarked) [Example 13, N-[4-(4-Amino-2-ethoxymethyl-1H-imidazo[4,5-c]quinolin-1-yl)-1-methylbutyl]-N-methoxymethanesulfonamide]: 146 to 148 °C.
The same measure for `CCOCc1nc2c(N)nc3ccccc3c2n1CCCC(C)=NO` [Example 34, 5-(4-Amino-2-ethoxymethyl-1H-imidazo[4,5-c]quinolin-1-yl)pentan-2-one oxime]: 220 to 223 °C; for `CCCCc1nc2c(N)nc3ccccc3c2n1CCCC(C)=NOC` [Example 33, 5-(4-Amino-2-butyl-1H-imidazo[4,5-c]quinolin-1-yl)pentan-2-one O-methyloxime]: 157 to 159 °C; for `CCCCc1nc2c(N)nc3cccnc3c2n1CCC/C(C)=N/OC` [Example 4, 5-(4-Amino-2-butyl-1H-imidazo[4,5-c][1,5]naphthyridin-1-yl)-pentan-2-one O-methyloxine]: 132 to 134 °C.
For `CON(CCCCn1c(C)nc2c(N)nc3ccccc3c21)C(N)=O` [Example 46, N-[4-(4-Amino-2-methyl-1H-imidazo[4,5-c]quinolin-1-yl)butyl]-N-methoxyurea] the value was 158 to 160 °C; for `CCCc1nc2c(N)nc(C)c(C)c2n1CCCCN(O)C(=O)NC(C)C` [Example 23, 1-[4-(4-Amino-6,7-dimethyl-2-propyl-1H-imidazo[4,5-c]pyridin-1-yl)butyl]-1-hydroxy-3-isopropylurea], 138.5 to 140 °C.
For the molecule `CCCc1nc2c(N)nc(C)c(C)c2n1CCC/C(C)=N/OC` [Example 5, 5-(4-Amino-6,7-dimethyl-2-propyl-1H-imidazo[4,5-c]pyridine-1-yl)pentan-2-one O-methyloxime], the melting point is 144 to 145.5 °C.
For `CCCCCCC(CCCn1c(CCC)nc2c(N)nc3ccccc3c21)=NO` [Example 38, 1-(4-Amino-2-propyl-1H-imidazo[4,5-c]quinolin-1-yl)decan-4-one oxime] the value was 113 to 115 °C.
